According to PubChem BioAssay AID1918958 (Molecular Pharmacology Branch, DTP, NCI, 2023):

Tested on: NCI-H196 complex spheroid viability
Assay: Anticancer human tumor NCI-H196 cell line growth inhibition [LSD1];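 further: spheroids exposed to agents for 7 days before readout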;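 on viability, T/C: 100% = DMSO vehicle control viability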
Settings: for IC50: curve of first compound; for viability, T/C: stronger effect = lower value
Method in brief: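 Drug combinations with the LSD1 inhibitor iadademstat tested on tumor cells co-cultured as spheroids with endothelial cells and mesenchymal stem cells. Concentrations descended in half-log increments from clinical Cmax or 10 microM.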

[1] = second compound 0.1 µM, first compound 0.0316 µM
[2] = second compound 0.1 µM, first compound 0.1 µM
[3] = second compound 0.1 µM, first compound 0.316 µM
[4] = second compound 0.1 µM, first compound 1 µM
[5] = second compound 0.316 µM, first compound 0.0316 µM
[6] = second compound 0.316 µM, first compound 0.1 µM
[7] = second compound 0.316 µM, first compound 0.316 µM
[8] = second compound 0.316 µM, first compound 1 µM
[9] = second compound 1 µM, first compound 0.0316 µM
[10] = second compound 1 µM, first compound 0.1 µM
[11] = second compound 1 µM, first compound 0.316 µM
[12] = second compound 1 µM, first compound 1 µM
[13] = second compound 3.16 µM, first compound 0.0316 µM
[14] = second compound 3.16 µM, first compound 0.1 µM
[15] = second compound 3.16 µM, first compound 0.316 µM
[16] = second compound 3.16 µM, first compound 1 µM
[17] = second compound 10 µM, first compound 0.0316 µM
[18] = second compound 10 µM, first compound 0.1 µM
[19] = second compound 10 µM, first compound 0.316 µM
[20] = second compound 10 µM, first compound 1 µM
[21] = second compound 0.1 µM, first compound 0.00949 µM
[22] = second compound 0.1 µM, first compound 0.03 µM
[23] = second compound 0.1 µM, first compound 0.0949 µM
[24] = second compound 0.1 µM, first compound 0.3 µM
[25] = second compound 0.316 µM, first compound 0.00949 µM
[26] = second compound 0.316 µM, first compound 0.03 µM
[27] = second compound 0.316 µM, first compound 0.0949 µM
[28] = second compound 0.316 µM, first compound 0.3 µM
[29] = second compound 1 µM, first compound 0.00949 µM
[30] = second compound 1 µM, first compound 0.03 µM
[31] = second compound 1 µM, first compound 0.0949 µM
[32] = second compound 1 µM, first compound 0.3 µM
[33] = second compound 3.16 µM, first compound 0.00949 µM
[34] = second compound 3.16 µM, first compound 0.03 µM
[35] = second compound 3.16 µM, first compound 0.0949 µM
[36] = second compound 3.16 µM, first compound 0.3 µM
[37] = second compound 10 µM, first compound 0.00949 µM
[38] = second compound 10 µM, first compound 0.03 µM
[39] = second compound 10 µM, first compound 0.0949 µM
[40] = second compound 10 µM, first compound 0.3 µM

SMILES: CC1COCCN1c1cc(C2(S(C)(=N)=O)CC2)nc(-c2ccnc3[nH]ccc23)n1 (stereo not given) + NC1CC1c1ccc(-c2cccc(O)c2)cc1
- IC50 (second compound 0.1 µM): > 10 µM
- IC50 (second compound 0.316 µM): > 10 µM
- IC50 (second compound 1 µM): > 10 µM
- IC50 (second compound 3.16 µM): > 10 µM
- IC50 (second compound 10 µM): > 10 µM
- viability, T/C [1]: 97.7%
- viability, T/C [2]: 88.3%
- viability, T/C [3]: 92.2%
- viability, T/C [4]: 89.1%
- viability, T/C (second compound 0.1 µM, first compound 3.16 µM): 73.9%
- viability, T/C (second compound 0.1 µM, first compound 10 µM): 63.6%
- viability, T/C [5]: 97.3%
- viability, T/C [6]: 95.8%
- viability, T/C [7]: 88%
- viability, T/C [8]: 89.6%
- viability, T/C (second compound 0.316 µM, first compound 3.16 µM): 77.1%
- viability, T/C (second compound 0.316 µM, first compound 10 µM): 64.5%
- viability, T/C [9]: 98.2%
- viability, T/C [10]: 93.1%
- viability, T/C [11]: 108%
- viability, T/C [12]: 89.2%
- viability, T/C (second compound 1 µM, first compound 3.16 µM): 67.7%
- viability, T/C (second compound 1 µM, first compound 10 µM): 62%
- viability, T/C [13]: 103%
- viability, T/C [14]: 96.8%
- viability, T/C [15]: 93.9%
- viability, T/C [16]: 85.6%
- viability, T/C (second compound 3.16 µM, first compound 3.16 µM): 70.2%
- viability, T/C (second compound 3.16 µM, first compound 10 µM): 61.5%
- viability, T/C [17]: 94.8%
- viability, T/C [18]: 102%
- viability, T/C [19]: 93%
- viability, T/C [20]: 91.6%
- viability, T/C (second compound 10 µM, first compound 3.16 µM): 71.3%
- viability, T/C (second compound 10 µM, first compound 10 µM): 64.3%

SMILES: CCN(c1cc(-c2ccc(CN3CCOCC3)cc2)cc(C(=O)NCc2c(C)cc(C)[nH]c2=O)c1C)C1CCOCC1 + NC1CC1c1ccc(-c2cccc(O)c2)cc1
- IC50 (second compound 0.1 µM): > 3 µM
- IC50 (second compound 0.316 µM): > 3 µM
- IC50 (second compound 1 µM): > 3 µM
- IC50 (second compound 3.16 µM): > 3 µM
- IC50 (second compound 10 µM): > 3 µM
- viability, T/C [21]: 93.6%
- viability, T/C [22]: 91.8%
- viability, T/C [23]: 98%
- viability, T/C [24]: 108%
- viability, T/C (second compound 0.1 µM, first compound 0.949 µM): 107%
- viability, T/C (second compound 0.1 µM, first compound 3 µM): 118%
- viability, T/C [25]: 94.5%
- viability, T/C [26]: 97.8%
- viability, T/C [27]: 113%
- viability, T/C [28]: 104%
- viability, T/C (second compound 0.316 µM, first compound 0.949 µM): 110%
- viability, T/C (second compound 0.316 µM, first compound 3 µM): 110%
- viability, T/C [29]: 97.4%
- viability, T/C [30]: 102%
- viability, T/C [31]: 102%
- viability, T/C [32]: 106%
- viability, T/C (second compound 1 µM, first compound 0.949 µM): 116%
- viability, T/C (second compound 1 µM, first compound 3 µM): 112%
- viability, T/C [33]: 98.4%
- viability, T/C [34]: 99%
- viability, T/C [35]: 101%
- viability, T/C [36]: 102%
- viability, T/C (second compound 3.16 µM, first compound 0.949 µM): 98.9%
- viability, T/C (second compound 3.16 µM, first compound 3 µM): 103%
- viability, T/C [37]: 98.6%
- viability, T/C [38]: 109%
- viability, T/C [39]: 104%
- viability, T/C [40]: 104%
- viability, T/C (second compound 10 µM, first compound 0.949 µM): 105%
- viability, T/C (second compound 10 µM, first compound 3 µM): 92.9%

SMILES: Nc1ncn(C2CC(O)C(CO)S2)c(=O)n1 (stereo not given) + NC1CC1c1ccc(-c2cccc(O)c2)cc1
- IC50 (second compound 0.1 µM): > 0.3 µM
- IC50 (second compound 0.316 µM): > 0.3 µM
- IC50 (second compound 1 µM): > 0.3 µM
- IC50 (second compound 3.16 µM): > 0.3 µM
- IC50 (second compound 10 µM): > 0.3 µM
- viability, T/C (second compound 0.1 µM, first compound 0.000949 µM): 98.2%
- viability, T/C (second compound 0.1 µM, first compound 0.003 µM): 105%
- viability, T/C [21]: 108%
- viability, T/C [22]: 101%
- viability, T/C [23]: 108%
- viability, T/C [24]: 102%
- viability, T/C (second compound 0.316 µM, first compound 0.000949 µM): 107%
- viability, T/C (second compound 0.316 µM, first compound 0.003 µM): 111%
- viability, T/C [25]: 112%
- viability, T/C [26]: 113%
- viability, T/C [27]: 112%
- viability, T/C [28]: 113%
- viability, T/C (second compound 1 µM, first compound 0.000949 µM): 103%
- viability, T/C (second compound 1 µM, first compound 0.003 µM): 110%
- viability, T/C [29]: 113%
- viability, T/C [30]: 109%
- viability, T/C [31]: 134%
- viability, T/C [32]: 116%
- viability, T/C (second compound 3.16 µM, first compound 0.000949 µM): 101%
- viability, T/C (second compound 3.16 µM, first compound 0.003 µM): 102%
- viability, T/C [33]: 106%
- viability, T/C [34]: 99.3%
- viability, T/C [35]: 117%
- viability, T/C [36]: 119%
- viability, T/C (second compound 10 µM, first compound 0.000949 µM): 101%
- viability, T/C (second compound 10 µM, first compound 0.003 µM): 109%
- viability, T/C [37]: 103%
- viability, T/C [38]: 102%
- viability, T/C [39]: 103%
- viability, T/C [40]: 99.5%

SMILES: O=C(C=Cn1cnc(-c2cc(C(F)(F)F)cc(C(F)(F)F)c2)n1)NNc1cnccn1 + NC1CC1c1ccc(-c2cccc(O)c2)cc1
- IC50 (second compound 0.1 µM): < 0.00316 µM
- IC50 (second compound 0.316 µM): < 0.00316 µM
- IC50 (second compound 1 µM): < 0.00316 µM
- IC50 (second compound 3.16 µM): < 0.00316 µM
- IC50 (second compound 10 µM): < 0.00316 µM
- viability, T/C (second compound 0.1 µM, first compound 0.00316 µM): 32.5%
- viability, T/C (second compound 0.1 µM, first compound 0.01 µM): 27.1%
- viability, T/C [1]: 19.8%
- viability, T/C [2]: 14.6%
- viability, T/C [3]: 10.4%
- viability, T/C [4]: 7.16%
- viability, T/C (second compound 0.316 µM, first compound 0.00316 µM): 33.1%
- viability, T/C (second compound 0.316 µM, first compound 0.01 µM): 25.6%
- viability, T/C [5]: 20.7%
- viability, T/C [6]: 12.4%
- viability, T/C [7]: 10.7%
- viability, T/C [8]: 8.26%
- viability, T/C (second compound 1 µM, first compound 0.00316 µM): 31.3%
- viability, T/C (second compound 1 µM, first compound 0.01 µM): 31.5%
- viability, T/C [9]: 19.6%
- viability, T/C [10]: 12.1%
- viability, T/C [11]: 10.6%
- viability, T/C [12]: 9.55%
- viability, T/C (second compound 3.16 µM, first compound 0.00316 µM): 45.6%
- viability, T/C (second compound 3.16 µM, first compound 0.01 µM): 31.5%
- viability, T/C [13]: 15.9%
- viability, T/C [14]: 14%
- viability, T/C [15]: 10.2%
- viability, T/C [16]: 10.3%
- viability, T/C (second compound 10 µM, first compound 0.00316 µM): 36.2%
- viability, T/C (second compound 10 µM, first compound 0.01 µM): 29.2%
- viability, T/C [17]: 18.3%
- viability, T/C [18]: 15.9%
- viability, T/C [19]: 12.4%
- viability, T/C [20]: 11.9%
